Measurements taken from patent publication US20240325398A1, “COMBINATION THERAPIES” (Infinity Pharmaceuticals, Inc., priority 2014, published 2024).

How the values were obtained:
[1] = Tolerability and pharmacokinetics of Compound 1 with dexamethasone in non-tumor bearing mice; format: in vivo
Procedure: The effects of a combination of Compound 1 and dexamethasone were assessed in vivo in non-tumor bearing mice. Dexamethasone is an inducer of CYP2B6 and CYP3A4 and thus might be expected to decrease exposure of Compound 1. Tolerability of the combination was assessed in non-tumor bearing CD17.SCID female mice. Treatment was carried out for 14 days using the following treatment groups: 1) Vehicle 1 (5% NMP+95% PEG400)+Vehicle 2 (saline); 2) Compound 1 (50 mg/kg, QD, PO)+Vehicle 2; 3) Vehicle 1+Dex 1 (5 mg/kg, Q3D, IP); 4) Compound 1+Dex 1; 5) Vehicle 1+Dex 2 (1 mg/kg, Q3D, IP); 6) Compound 1+Dex 2. PEG400 refers to polyethylene glycol-400. NMP refers to N-methyl-2-pyrrolidone. Dex refers to dexamethasone. Q3D refers to administration every third day. PO refers to oral administration. IP refers to intraperitoneal administration. Plasma samples were collected on day 14 at the trough, 1, 2, 4, and 6 h post dose for pharmacokinetic analysis.

[2] = system: Compound 1-resistant SU-DHL-4 clones; assay: CTG (Cell Titer Glo) IC50, Compound 1-resistant clones; format: cell-based; conditions: Compound 1-resistant clones versus control cells, FIG. 10
Procedure: (§1) The DMSO stock for each compound was diluted to 5 mM or 1 mM with DMSO. A 1:1000 dilution was performed into the plated cells (10 uL) for a final of 1 uM or 5 uM (final DMSO […]). Cells were counted 2 times per week and cell densities were adjusted back to 2.5×10^5 c/mL as needed. Media/Compound was replenished as needed and Media/Compound was replaced 1× per week. Compound treatment lasted for 28 days. Compound was washed out for 1 week and cells were subsequently used in assays to determine resistance after 4 weeks of treatment.
(§2) The cell line pool was treated with compound for an additional 28 days prior to subcloning. Altogether, the cell line pool was under selective pressure for a total of 8 weeks.
Cell lines were subcloned at 3, 1, and 0.3 cells per well (cpw). 1:10 of conditioned medium (CM) was included in medium in addition to corresponding DMSO control or compound. During subcloning optimization experiments, the SU-DHL-4 cell line could only be subcloned in the presence of 1:10 conditioned medium. […]
(§3) All cell lines subcloned grew out. […] Once expanded in a 24 well plate, the 12 clones per cell line were evaluated for viability by flow using the Dead_Live kit (Invitrogen #L23101).
Clones for parent, DMSO and Compound 1-R cell lines were selected based on their P1 vs P2 distribution determined by FSCH vs SSCH scatter plot. […]

[3] = system: ibrutinib-resistant SU-DHL-4 clones; assay: CTG (Cell Titer Glo) IC50, ibrutinib-resistant clones; format: cell-based; conditions: ibrutinib clones 2B.3, 5C.3, 10B.3, 11D.3, 11G.3
Procedure: as §1, §2
Cell lines were subcloned at 3, 1, and 0.3 cells per well (cpw). 1:10 of conditioned medium (CM) was included in medium in addition to corresponding DMSO control or compound. During subcloning optimization experiments, the SU-DHL-4 cell line could only be subcloned in the presence of 1:10 conditioned medium. Conditioned medium (CM) was collected 4 days after splitting the parent cell line and when cells were approximately 90% confluent. Cells were spun down and the supernatant (CM) was collected down. […]
as §3

CLL = assay: Clinical trial, Compound 1 monotherapy in a patient with CLL; format: in vivo, human; conditions: one CLL patient
SU-DHL-6-epst = assay: Combination study of Compound 1 or CAL-101 and a second therapeutic agent (Synergy Score, CI50); format: cell-based
SUDHL6 = assay: Combination study of Example 1 (data not shown); format: cell-based; conditions: combination with Compound 1, SUDHL6 cell line
Excerpt: The method is described as follows.
Additive effect is CI=1.0. […] Antagonistic effect is CI>1.0.

TMD8 = assay: Combination study, ATPLite 72 h, dose matrix (Synergy Score, CI50); conditions: TMD8
Procedure: (§4) Cells are thawed from a liquid nitrogen preserved state. Once cells have been expanded and divide at their expected doubling times, screening begins. Cells are seeded in growth media in either black 1536-well or 384-well tissue culture treated plates. Cells are then equilibrated in assay plates via centrifugation and placed in incubators attached to the Dosing Modules at 37° C. for 24 hours before treatment. […] These Tzero (To) plates are read using ultra-sensitive luminescence on Envision plate readers (Perkin Elmer). Treated assay plates are incubated with compound for 72 hours. After 72 hours, plates are developed for endpoint analysis using ATPLite. All data points are collected via automated processes, quality controlled and analyzed using Zalicus software.
(§5) where T is treated cell count and V is untreated (vehicle) cell count (at 72 hours). I ranges from 0% (when T=V) to 100% (when T=0). […] The measure of effect in the experiment can be the inhibition of cellular response relative to the untreated level (vehicle alone). […] The inhibition ranges from 0% at the untreated level to 100% when T=0. Inhibition levels are negative for agents that actually increase levels. Other effect measures, such as an activity ratio r=T/V may be more appropriate for some assays. When activity ratios (e.g, fold increase over stimulated control) are being used, the effect can be measured using an induction 1=ln(T/V). With this definition, all effect expressions are the same as for inhibition.
(§6) Growth Inhibition (GI) is used as a measure of cell viability. […] A GI reading of 100% represents complete growth inhibition—T72 compound-treated and T0 vehicle signals are matched. […] A GI reading of 200% represents complete death of all cells in the culture well. Compounds reaching an activity plateau of GI 200% are considered cytotoxic. GI is calculated by applying the following test and equation:
(§7) Combination analysis data were collected in a 6×6 dose matrix. Synergy is calculated by comparing a combination's response to those of its single compound, against the drug-with-itself dose-additive reference model. Deviations from dose additivity may be assessed visually on an isobologram or numerically with a Combination Index (CI). […] Additive effect is CI=1.0. […] Antagonistic effect is CI>1.0.
The isobologram was drawn by identifying the locus of concentrations that correspond to crossing the indicated inhibition level. This is done by finding the crossing point for each single agent concentration in a dose matrix across the concentrations of the other single agent. Practically, each vertical concentration CY is held fixed while a bisection algorithm is used to identify the horizontal concentration CX in combination with that vertical dose that gives the chosen effect level in the response surface Z(CX,CY). These concentrations are then connected by linear interpolation to generate the isobologram display. For synergistic interactions, the isobologram contour fall below the additivity threshold and approaches the origin, and an antagonistic interaction would lie above the additivity threshold. The error bars represent the uncertainty arising from the individual data points used to generate the isobologram. The uncertainty for each crossing point is estimated from the response errors using bisection to find the concentrations where Z−αZ(CX,CY) and Z+σZ(CX,CY) cross Icut, where αZ is the standard deviation of the residual error on the effect scale.
(§8) To measure combination effects in excess of Loewe additivity, a scalar measure to characterize the strength of synergistic interaction termed the Synergy Score is devised. The Synergy Score is calculated as:
The fractional inhibition for each component agent and combination point in the matrix is calculated relative to the median of all vehicle-treated control wells.

KARPAS-299 = assay: as above; conditions: combination with Compound 1
GRANTA-519 = assay: as above; conditions: combination with Compound 1
Mino = assay: as above; conditions: combination with Compound 1
Procedure: as §4, §5, §6, §7, §8
The fractional inhibition for each component agent and combination point in the matrix is calculated relative to the median of all vehicle-treated control wells. The Synergy Score equation integrates the experimentally-observed activity volume at each point in the matrix in excess of a model surface numerically derived from the activity of the component agents using the Loewe model for additivity. Additional terms in the Synergy Score equation (above) are used to normalize for various dilution factors used for individual agents and to allow for comparison of synergy scores across an entire experiment. The inclusion of positive inhibition gating or an Idata multiplier removes noise near the zero effect level, and biases results for synergistic interactions at that occur at high activity levels.
Loewe Volume (Loewe Vol) is used to assess the overall magnitude of the combination interaction in excess of the Loewe additivity model. Loewe Volume is particularly useful when distinguishing synergistic increases in a phenotypic activity (positive Loewe Volume) versus synergistic antagonisms (negative Loewe Volume). […] This model defines additivity as a non-synergistic combination interaction where the combination dose matrix surface should be indistinguishable from either drug crossed with itself.

[4] = combination with CAL-101, Example 2
[5] = combination with Cmpd 1, Example 2
[6] = combination with Compound 1, 72 h

Q: With `C[C@H](Nc1ncnc2[nH]cnc12)c1cc2cccc(Cl)c2c(=O)n1-c1ccccc1` [Compound 1, (S)-3-(1-((9H-purin-6-yl)amino)ethyl)-8-chloro-2-phenylisoquinolin-1(2H)-one] as the molecule, how does the “Compound 1 plasma exposure” value ([1]; 50 mg/kg Compound 1 PO in combination with dexamethasone 5 mg/kg Q3D, versus Compound 1 alone) read?
A: The value was “decrease”.

Q: And the “mean plasma concentration of Compound 1” value ([1]; 50 mg/kg Compound 1 plus 1 mg/kg dexamethasone (Q3D) versus 50 mg/kg Compound 1 alone)?
A: The value was “relatively similar”.

Q: What about the “decrease of Compound 1 plasma exposure” value ([1]; co-administered with higher dose of dexamethasone, 5 mg/kg) of the same molecule?
A: The value was “about 30%”.

Q: And the “degree of Compound 1 exposure” value ([1]; single agent versus combination with dexamethasone 1 mg/kg)?
A: Its value is “similar”.

Q: And the “average IC50 for inhibition of the resistant cells versus control cells” value [2]?
A: The value was “higher”.

Q: What about the “cross-resistance of ibrutinib-resistant clones” value [3] of the same molecule?
A: Its value is “no cross-resistance”.

Q: What about the “Absolute lymphocyte count (ALC)” value (CLL; 25 mg bid, C5D1, ALC=257 at C1D1) of the same molecule?
A: Its value is 134.

Q: What about the clinical response (CLL; 25 mg bid, after C7 (cycle 7), STK11 copy loss detected at C5D1) of the same molecule?
A: Its clinical response is “progressed”.

Q: And the clinical response (CLL; monotherapy 25 mg bid, C3D1 (cycle 3, day 1))?
A: Its clinical response is “partial response”.

Q: What about the CI50 growth inhibition (SU-DHL-6-epst; combination with Dexamethasone) of the same molecule?
A: Its CI50 growth inhibition is “T (T=0.5 to <0.7)”.

Q: What about the CI50 inhibition (SU-DHL-6-epst; combination with Dexamethasone) of the same molecule?
A: Its CI50 inhibition is “T (T=0.5 to <0.7)”.

Q: And the “Synergy Score growth inhibition” value (SU-DHL-6-epst; combination with Dexamethasone)?
A: Its value is “A3 (A3=>3)”.

Q: What about the “Synergy Score inhibition” value (SU-DHL-6-epst; combination with Dexamethasone) of the same molecule?
A: Its value is “A2 (A2=1 to <3)”.

Q: What about the CI50 growth inhibition (SU-DHL-6-epst; combination with LEE011) of the same molecule?
A: The CI50 growth inhibition was “S (S=0.01 to <0.5)”.

Q: And the “Synergy Score growth inhibition” value (SU-DHL-6-epst; combination with LEE011)?
A: The value was “A2 (A2=1 to <3)”.

Q: And the “Synergy Score inhibition” value (SU-DHL-6-epst; combination with LEE011)?
A: Its value is “A1 (A1=0.0001 to <1)”.

Q: And the CI50 growth inhibition (SU-DHL-6-epst; combination with PCI-32765)?
A: The CI50 growth inhibition was “S (S=0.01 to <0.5)”.

Q: What about the CI50 inhibition (SU-DHL-6-epst; combination with PCI-32765) of the same molecule?
A: Its CI50 inhibition is “S (S=0.01 to <0.5)”.

Q: What about the “Synergy Score growth inhibition” value (SU-DHL-6-epst; combination with PCI-32765) of the same molecule?
A: The value was “A3 (A3=>3)”.

Q: And the “Synergy Score inhibition” value (SU-DHL-6-epst; combination with PCI-32765)?
A: The value was “A2 (A2=1 to <3)”.

Q: And the CI50 growth inhibition (SU-DHL-6-epst; combination with PD-0332991)?
A: Its CI50 growth inhibition is “S (S=0.01 to <0.5)”.

Q: And the CI50 inhibition (SU-DHL-6-epst; combination with PD-0332991)?
A: Its CI50 inhibition is “S (S=0.01 to <0.5)”.

Q: And the “Synergy Score growth inhibition” value (SU-DHL-6-epst; combination with PD-0332991)?
A: The value was “A2 (A2=1 to <3)”.

Q: What about the “Synergy Score inhibition” value (SU-DHL-6-epst; combination with PD-0332991) of the same molecule?
A: Its value is “A2 (A2=1 to <3)”.

Q: What does the source list for `C[C@@H]1C[C@H]2[C@@H]3CCC4=CC(=O)C=C[C@]4(C)[C@@]3(F)[C@@H](O)C[C@]2(C)[C@@]1(O)C(=O)CO` [dexamethasone, (8S,9R,10S,11S,13S,14S,16R,17R)-9-Fluoro-11,17-dihydroxy-17-(2-hydroxyacetyl)-10,13,16-trimethyl-6,7,8,9,10,11,12,13,14,15,16,17-dodecahydro-3H-cyclopenta[a]phenanthren-3-one]?
A: synergy of the combination (SUDHL6): significant synergy; CI50 growth inhibition (TMD8; [4]): S (S=0.01 to <0.5); CI50 inhibition (TMD8; [4]): S (S=0.01 to <0.5); Synergy Score growth inhibition (TMD8; [4]): A3 (A3=>3); Synergy Score inhibition (TMD8; [4]): A3 (A3=>3); CI50 growth inhibition (TMD8; [5]): T (T=0.5 to <0.7); CI50 inhibition (TMD8; [5]): S (S=0.01 to <0.5); Synergy Score growth inhibition (TMD8; [5]): A3 (A3=>3); Synergy Score inhibition (TMD8; [5]): A3 (A3=>3); CI50 growth inhibition (TMD8; [6]): U (U=0.7 to <1); CI50 inhibition (TMD8; [6]): S (S=0.01 to <0.5); Synergy Score growth inhibition (TMD8; [6]): A3 (A3=>3); Synergy Score inhibition (TMD8; [6]): A3 (A3=>3); Synergy Score growth inhibition (KARPAS-299): A1 (A1=0.0001 to <1); Synergy Score inhibition (KARPAS-299): A1 (A1=0.0001 to <1); CI50 growth inhibition (GRANTA-519): S (S=0.01 to <0.5); Synergy Score growth inhibition (GRANTA-519): A3 (A3=>3); Synergy Score inhibition (GRANTA-519): A1 (A1=0.0001 to <1); CI50 growth inhibition (Mino): S (S=0.01 to <0.5); CI50 inhibition (Mino): S (S=0.01 to <0.5); Synergy Score growth inhibition (Mino): A3 (A3=>3); Synergy Score inhibition (Mino): A2 (A2=1 to <3)
